This is an account of results in patent US10736859B2, “Eutectic formulations of cyclobenzaprine hydrochloride and amitriptyline hydrochloride” (Tonix Pharma Holdings Limited, priority 2013, dated 2020).

Entries after “also recorded” stand apart in the source; their conditions may differ.

Holding throughout (type): physicochemical
A short description of data set [1]: DSC, FT-IR/ATR and XRPD compatibility of Cyclobenzaprine HCl with additional excipients, mixed (A) and milled (B) 1:1 mixtures (Example 2). Conditions: for Interactions between Cyclobenzaprine HCl and excipients, Mixture 1:1 (mixed): mixture A, mechanical mixing only; for Interactions between Cyclobenzaprine HCl and excipients, Mixture 1:1 (mixed) / Interactions between Cyclobenzaprine HCl and excipients, Mixture 1:1 (milled): DSC; for Interactions between Cyclobenzaprine HCl and excipients, Mixture 1:1 (milled): mixture B, ground in agate mortar. Here is the method: As described above, thermal analytical techniques were further used to assess the compatibility of a drug product (tablet) containing Cyclobenzaprine HCl (API). The compatibility assessment was carried out between the API and additional excipients in a 1:1 ratio. The 1:1 API-excipient mixtures were formed in two different ways: first, by mixing only, and second, by strong milling in an agate mortar. The thermal behavior recorded in the two different mixtures were compared with those of the single components. On the basis of thermal events recorded for each component and for the mixtures, the analyses were carried out by investigating the meanings of the peaks recorded by differential scanning calorimetry (DSC) in mixtures between the API and the excipients. Furthermore, in order to define the nature of the interaction, the Fourier Transformate Infra Red Spectroscopy with Total Attenuated Reflectance (FT-IR/ATR) and X-ray powder diffraction (XRPD) of some samples (API, excipient, and mixed and milled mixtures) was carried out and compared.
Aliquots of API and each excipient were weighed in a ratio of 1:1 and ground in an agate mortar. Then, the homogeneous mixtures were analyzed. These sample mixtures were labeled “B”, while the mechanical-only mixtures were labeled “A.”
The DSC heating curves were obtained by TA 821 DSC Mettler instrument under the following conditions: • Heating rate: 10° C./min • Ambient: Nitrogen 30 mL/min • Sample holder: normal open aluminum pan • Temperature range: from 25° C. to 250° C. • Instrument calibration: Indium sample purity 99.999% Fourier Transformate Infra Red Spectroscopy with Total Attenuated Reflectance (FT-IR/ATR)
The FT-IR spectra were collected with a Perkin Elmer spectrum Two instrument with air as background and 4 cm^−1 resolution.
X-ray powder diffraction (XRPD) tests were performed with the ULTIMA IV instrument (Rigaku), laying the sample on a static sample holder. The X-ray focusing slit has a variable width, interlocked with the q value. The X-ray tube has a Copper target, with a current intensity of 40 mA and a voltage of 40 kV. Radiation was generated by the Cockcroft-Walton method, and was constituted by Kα1 (1.540562 Å) and Kα2 (1.544398 Å). The analytical conditions were: • Fixed Time; sampling width 0.02 deg, scanning rate 1.3 s/step, 2 q range 3.35 deg and sample holder; amorphous glass equiangular 9200/2G, 0.2 mm deep. The sample was pressed with a glass plate.

The nature of data set [2]: DSC compatibility of Amitriptyline HCl with excipients, 1:1 milled mixtures (Example 4). As to conditions: Amitriptyline HCl + excipient 1:1, milled in agate mortar. Here is the method:
Thermal analytical techniques were used to assess the compatibility of the drug product amitriptyline HCl. The compatibility assessment was carried out between the API and the excipients in a 1:1 ratio. On the basis of thermal events recorded for each component and for the mixtures, the analyses were carried out by investigating the peaks recorded by DSC in mixtures between API and the excipients. Differences in thermal profiles between the single compound and the related mixtures were obtained after milling the products in an agate mortar.
DSC was performed substantially as described in Examples 1 and 2. The following raw materials were used: • Amitriptyline HCl • Sodium stearyl fumarate • Stearic acid • Glycerol dibehenate • Magnesium stearate • Pearlitol flash • Pearlitol 200 SO/Mannitol • Unipure DW/Com starch pregelatinized • Crospovidone-Kollidon CL • Silicon Colloidal/Aerosil 200 • Sodium phosphate dibasic • Sodium bicarbonate • Sodium carbonate • Sodium Phosphate dodecahydrate • Sodium Phosphate anhydrous.

The nature of data set [3]: DSC compatibility of Cyclobenzaprine HCl (API) with excipients, milled mixtures (Example 1). Conditions: for Excipient reactions with API, Mixture 1:1: Cyclobenzaprine HCl + excipient 1:1, ground in agate mortar; for Excipient reactions with API, Mixture in formulation ratio: Cyclobenzaprine HCl + excipient in formulation ratio. The method, then: Thermal analytical techniques were used to assess the compatibility of a drug product (tablet) containing Cyclobenzaprine HCl (API). The compatibility assessment was carried out between the API and a number of possible excipients in a 1:1 ratio. Based on the thermal events recorded for each component and for the mixtures, the analyses were carried out by investigating the peaks recorded by differential scanning calorimetry (DSC) in mixture between API and the excipients. Differences in thermal profiles between the single compound and the related mixture obtained after milling the products in an agate mortar were evaluated. Stability and compatibility also were also assessed on the final drug product after stress conditions at 40° C. and 50° C. for one month.
A “formulation ratio” mixture was made with the following composition: 2.40 mg Cyclobenzaprine HCl, 31.55 mg Mannitol and Maize starch, 2.00 Crospovidone, 0.50 mg colloidal silica, 0.050 mg Sodium Stearyl Fumarate, and 1.05 Potassium hydrogen phosphate.
Aliquots of API and each excipient were weighed in a ratio of 1:1 (unless specified otherwise) and ground in an agate mortar. The homogeneous mixtures then were analyzed.
The DSC heating curves were obtained with a TA 821 DSC Mettler instrument under the following conditions: • Heating rate: 10° C./min • Ambient: Nitrogen 30 mL/min • Sample holder: normal open aluminum pan • Temperature range: from 25° C. to 250° C. • Instrument calibration: Indium sample purity 99.999%

Setting [4] is: listed as sodium phosphate anhydrous.
Setting [5] is: listed as sodium phosphate dihydrate, Sodium phosphate dihydrate.
[6] abbreviates: listed as Sodium Stearyl fumarate, fumarate.
Where [7] appears, read: listed as Trisodium Citrate anhydrous.
The mark [8] stands for this setting: listed as trisodium citrate dihydrate, citrate dihydrate.

In the case of `O=P([O-])([O-])O.[Na+].[Na+]` [Di Sodium phosphate anhydrous], in data set [1], the “Interactions between Cyclobenzaprine HCl and excipients, Mixture 1:1 (mixed)” value is given as “Low chemical”; the “Interactions between Cyclobenzaprine HCl and excipients, Mixture 1:1 (milled)” value is recorded as “Low chemical”. Moreover, in data set [1] (setting [4]), the “Interactions between Cyclobenzaprine HCl and excipients, Mixture 1:1 (mixed)” value was “physical interaction”; the “Interactions between Cyclobenzaprine HCl and excipients, Mixture 1:1 (milled)” value is “physical interaction”. For the same compound, in data set [2] (listed as Sodium phosphate anhydrous), the “Interactions between API and excipients, Mixture in formulation (1:1 ratio)” value is given as “No physical interaction”.

Turning to `O.O.O=P([O-])([O-])O.[Na+].[Na+]` [Di Sodium phosphate di hydrate, Di Sodium phosphate dihydrate], in data set [1] (Sodium phosphate dihydrate), the “Interactions between Cyclobenzaprine HCl and excipients, Mixture 1:1 (mixed)” value is recorded as “Chemical”; the “Interactions between Cyclobenzaprine HCl and excipients, Mixture 1:1 (milled)” value is on record as “Chemical”. In data set [1] (setting [5]), the “Interactions between Cyclobenzaprine HCl and excipients, Mixture 1:1 (mixed)” value is “a physical interaction and partial solubilization”; the “Interactions between Cyclobenzaprine HCl and excipients, Mixture 1:1 (milled)” value is on record as “physical interaction”.

Consider `O.O.O.O.O.O.O.O=P([O-])([O-])O.[Na+].[Na+]` [Di Sodium phosphate heptahydrate], for which, in data set [1], the “Interactions between Cyclobenzaprine HCl and excipients, Mixture 1:1 (mixed)” value is “Chemical”; the “Interactions between Cyclobenzaprine HCl and excipients, Mixture 1:1 (milled)” value was “Chemical”.

On to `CCCCCCCCCCCCCCCCCCCCCC(=O)OCC(CO)OC(=O)CCCCCCCCCCCCCCCCCCCCC` (centres unmarked) [Glycerol dibehenate], for which the “Interactions between API and excipients, Mixture in formulation (1:1 ratio)” value in data set [2] was “No interaction”; in data set [2] (listed as glycerol dibehenate), “small physical interaction”.

As to `O=P([O-])([O-])O.[K+].[K+]` [Potassium phosphate dibasic, dipotassium hydrogen phosphate], the “Excipient reactions with API, Mixture 1:1” value is “Acid - base interaction” in data set [3] and “chemical interaction (acid-base)” in data set [3] (listed as Potassium phosphate bibasic). The “Excipient reactions with API, Mixture in formulation ratio” value in data set [3] is on record as “Low chemical”; in data set [3] (listed as K2HPO4) it was “small interaction”.

With `O=C([O-])[O-].[Na+].[Na+]` [Sodium carbonate], in data set [2], the “Interactions between API and excipients, Mixture in formulation (1:1 ratio)” value was “small physical interaction; also recorded: No interaction”.

Turning to `O=P([O-])([O-])O.[Na+].[Na+]` [Sodium phosphate dibasic], the “Interactions between API and excipients, Mixture in formulation (1:1 ratio)” value in data set [2] was “Physical interaction”.

As to `CCCCCCCCCCCCCCCCCCOC(=O)/C=C/C(=O)[O-].[Na+]` [Sodium stearyl fumarate], the “Excipient reactions with API, Mixture 1:1” value in data set [3] (fumarate) is on record as “Physical interaction”; in data set [3] (setting [6]), “physical interaction”. Also, the “Excipient reactions with API, Mixture in formulation ratio” value in data set [3] (fumarate) is recorded as “No interaction”; in data set [3] (setting [6]), “small physical interaction”. Also, the figures for the “Interactions between API and excipients, Mixture in formulation (1:1 ratio)” value in data set [2] (fumarate) and in data set [2] (setting [6]) were “Physical interaction” and “physical interaction”, respectively.

On to `OC[C@@H](O)[C@@H](O)[C@H](O)[C@@H](O)CO` [Sorbitol], for which the “Interactions between Cyclobenzaprine HCl and excipients, Mixture 1:1 (mixed)” value in data set [1] was “Chemical”; in data set [1] (listed as sorbitol), “interaction was observed, due to the solubilization of API by sorbitol”. Besides, the “Interactions between Cyclobenzaprine HCl and excipients, Mixture 1:1 (milled)” value is on record as “Chemical” in data set [1] and “interaction was observed, due to the solubilization of API by sorbitol” in data set [1] (listed as sorbitol).

For `CCCCCCCCCCCCCCCCCC(=O)O` [Stearic acid], the “Interactions between API and excipients, Mixture in formulation (1:1 ratio)” value in data set [2] is given as “small physical interaction; also recorded: No interaction”.

For the compound `O=C([O-])CC(O)(CC(=O)[O-])C(=O)[O-].[Na+].[Na+].[Na+]` [Tri Sodium Citrate anhydrous, Trisodium citrate anhydrous], the “Chemical acid-base reaction by FT-IR/ATR” value in data set [1] (mixture A 1:1 with Cyclobenzaprine HCl, room temperature, chlorohydrate band 3000-2000 cm-1) was “no chemical acid-base reaction had occurred”. Also, in data set [1], the “Interactions between Cyclobenzaprine HCl and excipients, Mixture 1:1 (mixed)” value is reported as “Physical”; the “Interactions between Cyclobenzaprine HCl and excipients, Mixture 1:1 (milled)” value was “Physical”. In data set [1] (setting [7]), the “Interactions between Cyclobenzaprine HCl and excipients, Mixture 1:1 (mixed)” value is given as “physical complex melting at a lower temperature”; the “Interactions between Cyclobenzaprine HCl and excipients, Mixture 1:1 (milled)” value is listed as “physical complex melting at lower temperature”.

In the case of `O.O.O=C([O-])CC(O)(CC(=O)[O-])C(=O)[O-].[Na+].[Na+].[Na+]` [Trisodium citrate dihydrate], in data set [1] (citrate dihydrate), the “Interactions between Cyclobenzaprine HCl and excipients, Mixture 1:1 (mixed)” value was “Chemical”; the “Interactions between Cyclobenzaprine HCl and excipients, Mixture 1:1 (milled)” value is given as “Chemical”. For the same compound, in data set [1] (setting [8]), the “Interactions between Cyclobenzaprine HCl and excipients, Mixture 1:1 (mixed)” value is “physico-chemical interaction”; the “Interactions between Cyclobenzaprine HCl and excipients, Mixture 1:1 (milled)” value is “physico-chemical interaction”.

As to Magnesium stearate, the “Interactions between API and excipients, Mixture in formulation (1:1 ratio)” value in data set [2] is on record as “small physical interaction”.

Regarding Sodium Phosphate dodecahydrate, the “Interactions between API and excipients, Mixture in formulation (1:1 ratio)” value in data set [2] is given as “physical/chemical interaction”.
